According to patent US7972829B2, “Process for producing transglutaminase” (Ajinomoto Co., Inc., priority 1999, dated 2011):
Entries after “also recorded” stand apart in the source; their conditions may differ. Read-outs that look alike come from different tables or passages of the source. *1 amine or outer side, *2 acyl side, *3 side chain or, on linkers, in order; H or OH if unused. Where a SMILES comes first, the peptide text is derived from it. Primed or numbered codes have the meaning given here. Where no end group is shown, it is not given here. [ ]: non-standard residue; d: D form. The star is where a group is joined. Sta = CC(C)C[C@H](N)[C@@H](O)CC(=O)O; pNA = O=[N+]([O-])c1ccc(N*)cc1; Suc = O=C(CCC(=O)[*:2])[*:1]; Isovaleryl = CC(C)CC(=O)*; code Z = not defined here; βNA = c1ccc2cc(N*)ccc2c1; Bz′ = not defined here; Cbz = O=C(OCc1ccccc1)*

How the values were obtained:
[1] = system: proline specific peptidase (svPEP); assay: Effects of inhibitors on the activity of proline specific peptidase (svPEP), Ala-Ala-Pro-pNA as substrate; type: biochemical, S. mobaraense IFO13819; settings: for inhibition of svPEP activity (in words): Ala-Ala-Pro-pNA as substrate
[2] = system: proline specific peptidase (svPEP); assay: Substrate specificity of svPEP (cleaving activity on pNA-, βNA-conjugated peptides and peptides); type: biochemical, S. mobaraense IFO13819; settings: for relative activity (specificity of svPEP for peptide substrate): 20 mM sodium phosphate buffer pH 6.5, 37° C., 5 min, AAP-pNA = 100; for substrate recognition by svPEP (in words): cleavage at carboxyl terminal side of proline residue
[3] = Enzyme properties of svPEP (optimum pH, pH stability, optimum temperature, temperature stability); type: biochemical
Experimental: were used as a buffer, respectively. The enzyme was allowed to act on Ala-Ala-Pro-pNA as the substrate at 30° C. for 5 minutes. Relative activity of the enzyme in each buffer was calculated compared to the activity in 20 mM sodium phosphate buffer, pH6.5 as 100%. […] (iii) pH Stability
0.15 M GTA buffers (buffers composed of 3,3-dimethylglutaric acid, tris(hydroxymethyl)aminomethane, 2-amino-2-methyl-1,3-propanediol) ranging between pH 3 and pH10 were used. To 20 µl of purified enzyme solution, 40 μl of the buffer at each pH was added and the reaction mixtures were allowed to stand overnight at 4° C., then adjusted to pH 7.0 and the volume was made up to 120 μl. To 50 μl aliquots, Ala-Ala-Pro-pNA was added and the reaction was performed at 30° C. for 5 minutes. Relative amounts of substrate which the enzyme decomposed at each pH were considered to be the remaining activity compared to the activity of the enzyme as 100% when the enzyme was stored under the same condition as described above except for pH 7.0.
To 50 μl of purified enzyme solution, 0.5 ml of 20 mM sodium phosphate buffer (pH 6.5) was added and Ala-Ala-Pro-pNA was added up to 0.25 mM and the mixture was maintained at 20° C.-60° C. for 5 minutes to effect decomposition reaction. Relative amount of substrate which the enzyme decomposed was considered to be the relative activity at each temperature, compared to the amount of substrate decomposition at 25° C. as 100% activity.
To 50 μl of purified enzyme solution, 0.5 ml of 20 mM sodium phosphate buffer (pH 6.5) was added. The mixture was maintained at 4° C. or 20° C.-60° C. for 15 minutes and then cooled on ice. Ala-Ala-Pro-pNA was added up to 0.25 mM and the mixture was maintained at 30° C. for 5 minutes. The remaining activity was calculated assuming the activity of the enzyme which was treated at 4° C. to be 100%.

[4] = Isoelectric point of svPEP; type: physicochemical
[5] = Transglutaminase activity by hydroxamate method; type: biochemical
[6] = compound 1 mM, 10 min room temperature, then Ala-Ala-Pro-pNA, 30° C., 5 min, activity without compound = 100%
[7] = compound 10 mM, 10 min room temperature, then Ala-Ala-Pro-pNA, 30° C., 5 min, activity without compound = 100%

Molecule: CCN1C(=O)C=CC1=O [N-Ethylmaleimide]
- relative activity [1, 6]: 98.3%

Molecule: AAF-pNA (Ala-Ala-Phe-pNA) [p-nitroanilide peptide substrate for svPEP]
- relative activity (specificity of svPEP for peptide substrate) [2]: 4.1%

Molecule: O=S(=O)(F)Cc1ccccc1 [Phenylmethylsulfonylfluoride]
- inhibition of svPEP activity (in words) ([1]; listed as phenyl methylsulfonylfluoride): comparatively strong inhibition
- inhibition of svPEP activity (in words) ([1]; listed as phenylmethylsulfonyl fluoride): inhibited
- relative activity [1, 6]: 39.7%

Molecule: c1cnc2c(c1)ccc1cccnc12 [1,10-Phenanthroline]
- relative activity [1, 6]: 92.5%

Molecule: O=C[C@@H]1CCCN1C(=O)[C@@H]1CCCN1C(=O)OCc1ccccc1 [Z-(S)Pro-(S)Prolinal] (Cbz-Pro-Pro-aldehyde)
- relative activity [1, 6]: 111.2%

Molecule: Ala-Ala-Pro-pNA [AAP-pNA, p-nitroanilide peptide substrate for svPEP]
- relative activity (specificity of svPEP for peptide substrate) [2]: 100%
- substrate recognition by svPEP (in words) [2]: preferably recognized

Molecule: Phe-Arg-Ala-Pro-pNA (FRAP-pNA)
- relative activity (specificity of svPEP for peptide substrate) [2]: 49.0%
- substrate recognition by svPEP (in words) [2]: preferably recognized

Molecule: O=C(O)c1cc[c]([Hg][Cl])cc1 [p-Chloromercuribenzoic acid]
- inhibition of svPEP activity (in words) [1]: inhibited to some extent
- relative activity [1, 6]: 87.1%

Molecule: NC(=O)CI [Iodoacetamide]
- relative activity [1]: 87%

Molecule: AAA-pNA
- relative activity (specificity of svPEP for peptide substrate) [2]: 8.5%

Molecule: Ala-Phe-Pro-pNA [AFP-pNA, p-nitroanilide peptide substrate for svPEP]
- relative activity (specificity of svPEP for peptide substrate) [2]: 26.3%
- substrate recognition by svPEP (in words) [2]: preferably recognized

Molecule: CC(C)C[C@H](NC(=O)[C@@H](NC(=O)N[C@@H](Cc1ccccc1)C(=O)O)[C@@H]1CCN=C(N)N1)C(=O)N[C@H](C=O)Cc1ccccc1 [Chymostatin]
- relative activity [1]: 84.9%

Molecule: SFRAP-pNA [p-nitroanilide peptide substrate for svPEP]
- relative activity (specificity of svPEP for peptide substrate) [2]: 1.23%

Molecule: CC(C)CC(=O)N[C@H](C(=O)N[C@H](C(=O)N[C@@H](CC(C)C)[C@@H](O)CC(=O)N[C@@H](C)C(=O)N[C@@H](CC(C)C)[C@@H](O)CC(=O)O)C(C)C)C(C)C [Pepstatin] (Isovaleryl-VV[Sta]A[Sta]-OH)
- relative activity [1, 6]: 165.7%

Molecule: AAPL-pNA [p-nitroanilide peptide substrate for svPEP]
- relative activity (specificity of svPEP for peptide substrate) [2]: 0.3%

Molecule: Aminoethylbenzenesulfonylfluoride hydrochloride
- inhibition of svPEP activity (in words) ([1]; hydrochloride): comparatively strong inhibition; also recorded: inhibited
- relative activity ([1]; compound 4 mM, 10 min room temperature, then Ala-Ala-Pro-pNA, 30° C., 5 min, activity without compound = 100%): 59.9%

Molecule: Suc-AAPF-pNA [p-nitroanilide peptide substrate for svPEP]
- relative activity (specificity of svPEP for peptide substrate) [2]: 0.01%

Molecule: Z-AGP-βNA ({code Z}-Ala-Gly-Pro-βNA; reading uncertain; also: printed as Z-AGP-βNA) [β-naphtylamido peptide substrate for svPEP]
- relative activity (specificity of svPEP for peptide substrate) [2]: 0.78%

Molecule: O=C(O)CN(CCN(CC(=O)O)CC(=O)O)CC(=O)O [EDTA]
- relative activity [1, 7]: 105.2%

Molecule: O=C[C@@H]1CCCN1C(=O)[C@@H]1CCCN1C(=O)OCc1ccccc1 [Z-Pro-(S)Prolinal] (Cbz-Pro-Pro-aldehyde)
- relative activity [1, 6]: 105.8%

Molecule: PSFRAP-pNA [p-nitroanilide peptide substrate for svPEP]
- relative activity (specificity of svPEP for peptide substrate) [2]: 0.2%

Molecule: Bz-Phe-Val-Arg-pNA ({Bz′}-Phe-Val-Arg-pNA) [Bz-FVR-pNA, p-nitroanilide peptide substrate]
- relative activity (specificity of svPEP for peptide substrate) [2]: 0.002%

Molecule: O=C[C@@H]1CCCN1C(=O)[C@@H]1CCCN1C(=O)OCc1ccccc1 [Z-Pro-Prolinal] (Cbz-Pro-Pro-aldehyde)
- relative activity [1, 6]: 99.7%

Molecule: CC(C)C[C@H](NC(=O)[C@@H](O)[C@H](N)Cc1ccccc1)C(=O)O [Bestatin]
- relative activity [1, 6]: 97.6%

Molecule: p-pNA
- relative activity (specificity of svPEP for peptide substrate) [2]: 0.04%

Molecule: O[C@H](CS)[C@H](O)CS (racemic) [Dithiothreitol]
- relative activity [1, 7]: 102.5%

Molecule: Z-GAP-βNA ({code Z}-Gly-Ala-Pro-βNA; reading uncertain; also: printed as Z-GAP-βNA) [β-naphtylamido peptide substrate for svPEP]
- relative activity (specificity of svPEP for peptide substrate) [2]: 1.2%

B1: svPEP: proline-specific peptidase produced by S. mobaraense IFO13819; mature sequence SEQ ID NO:40 (protein)
chain: QADIKDRILKIPGMKFVEEKPYQGYRYLVMTYRQPVDHRNPGKGTFEQRFTLLHKDTDRPTVFFTSGYNVSTNPSRSEPTRIVDGNQVSMEYRFFTPSRPQPADWSKLDIWQAASDQHRLYQALKPVYGKNWLATGGSKGGMTATYFRRFYPNDMNGTVAYVAPNDVNDKEDSAYDKFFQNVGDKACRTQLNSVQREALVRRDEIVARYEKWAKENGKTFKVVGSADKAYENVVLDLVWSFWQYHLQSDCASVPATKASTDELYKFIDDISGFDGYTDQGLERFTPYYYQAGTQLGAPTVKNPHLKGVLRYPGINQPRSYVPRDIPMTFRPGAMADVDRWVREDSRNMLFVYGQNDPWSGEPFRLGKGAAARHDYRFYAPGGNHGSNIAQLVADERAKATAEVLKWAGVAPQAVQKDEKAAKPLAPFDAKLDRVKNDKQSALRP
modifications: Streptoverticillium mobaraense
- optimum pH ([3]; Ala-Ala-Pro-pNA, 30° C., 5 min): 6.0-6.5
- pH stability (stable at pH) ([3]; overnight at 4° C. in 0.15 M GTA buffers pH 3 to 10): 4-9
- optimum temperature ([3]; pH 6.5, 20° C.-60° C., 5 min): 25-30 °C
- temperature stability (stable below) ([3]; pH 6.5, 15 min at 4° C. or 20° C.-60° C.): below 20 °C
- isoelectric point [4]: 10.2

B2: transglutaminase: S. mobaraense transglutaminase secreto-produced as pro-form in C. glutamicum ATCC13869, pro-structure part cleaved by protease (protein)
chain: DSDDRVTPPAEPLDRMPDPYRPSYGRAETVVNNYIRKWQQVYSHRDGRKQQMTEEQREWLSYGCVGVTWVNSGQYPTNRLAFASFDEDRFKNELKNGRPRSGETRAEFEGRVAKESFDEEKGFQRAREVASVMNRALENAHDESAYLDNLKKELANGNDALRNEDARSPFYSALRNTPSFKERNGGNHDPSRMKAVIYSKHFWSGQDRSSSADKRKYGDPDAFRPAPGTGLVDMSRDRNIPRSPTSPGEGFVNFDYGWFGAQTEADADKTVWTHGNHYHAPNGSLGAMHVYESKFRNWSEGYSDFDRGAYVITFIPKSWNTAPDKVKQGWP
modifications: Streptoverticillium mobaraense
notes: S. mobaraense transglutaminase secreto-produced as pro-form in C. glutamicum ATCC13869, pro-structure part cleaved by protease
- specific activity ([5]; after Dispase digestion (37° C., pH 7.5, 1 hour) of culture supernatant of C. glutamicum ATCC13869 harboring pVKPTG1-4 or pPKPTG1-4): about 20 U/mg
- specific activity ([5]; after Dispase digestion (37° C., pH 7.5, 1 hour) of culture supernatant of C. glutamicum harboring pVKSPTG1, pVTSPTG1, pPKSPTG1 or pPTSPTG1): about 20 U/mg
- specific activity ([5]; culture supernatant of C. glutamicum harboring pVSS1 (SAMP45) and pPKSPTG1, Phe-Arg-Ala-Pro added at N-terminal): about 20 U/mg
- specific activity ([5]; culture supernatant of C. glutamicum harboring pVSS1 and pPKSPTG11 or pPKSPTG12): about 20 U/mg
- specific activity ([5]; culture supernatant of C. glutamicum harboring pVSSSP1 (SAMP45 and svPEP) and pPKSPTG1): about 20 U/mg
- specific activity ([5]; pro-structure cleaved with culture medium of S. mobaraense IFO13819, 30° C., 6 hours): about 20 U/mg
- specific activity ([5]; pro-structure cleaved with washed cells of S. mobaraense, 30° C., 6 hours): about 20 U/mg
